Consider 33 compounds from patent US20110130380A1, “Heteroaryl Kinase Inhibitors” (priority 2009, published 2011).

The assay deals with Cdk9/cyclinT1 (Homo sapiens, UniProt P50750). Description: Cdk9/cyclinT1 IMAP Protocol (fluorescence polarization kinase assay). The note with it: Cdk9_cyclinT1_IC50, Table V; generated using one of the two Cdk9/cyclinT1 assays (IMAP or Alpha Screen), not stated which; ATP 6 uM. A general note: In fluorescence polarisation assays a small probe gives low polarisation when free and higher when bound to something large.
Cdk9/cyclinT1, sequence (P50750 whole entry): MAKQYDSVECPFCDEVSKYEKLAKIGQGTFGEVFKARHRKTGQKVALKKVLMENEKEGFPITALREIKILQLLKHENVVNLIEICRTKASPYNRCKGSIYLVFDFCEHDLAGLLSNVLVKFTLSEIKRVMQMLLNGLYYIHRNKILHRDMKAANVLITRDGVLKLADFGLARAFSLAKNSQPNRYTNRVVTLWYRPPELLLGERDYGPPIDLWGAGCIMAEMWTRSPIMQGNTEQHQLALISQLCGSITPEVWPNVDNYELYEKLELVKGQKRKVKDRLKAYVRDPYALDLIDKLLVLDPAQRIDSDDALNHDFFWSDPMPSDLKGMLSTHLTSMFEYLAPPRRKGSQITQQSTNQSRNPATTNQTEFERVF
Cdk9/cyclinT1, sequence (O60563 whole entry partner): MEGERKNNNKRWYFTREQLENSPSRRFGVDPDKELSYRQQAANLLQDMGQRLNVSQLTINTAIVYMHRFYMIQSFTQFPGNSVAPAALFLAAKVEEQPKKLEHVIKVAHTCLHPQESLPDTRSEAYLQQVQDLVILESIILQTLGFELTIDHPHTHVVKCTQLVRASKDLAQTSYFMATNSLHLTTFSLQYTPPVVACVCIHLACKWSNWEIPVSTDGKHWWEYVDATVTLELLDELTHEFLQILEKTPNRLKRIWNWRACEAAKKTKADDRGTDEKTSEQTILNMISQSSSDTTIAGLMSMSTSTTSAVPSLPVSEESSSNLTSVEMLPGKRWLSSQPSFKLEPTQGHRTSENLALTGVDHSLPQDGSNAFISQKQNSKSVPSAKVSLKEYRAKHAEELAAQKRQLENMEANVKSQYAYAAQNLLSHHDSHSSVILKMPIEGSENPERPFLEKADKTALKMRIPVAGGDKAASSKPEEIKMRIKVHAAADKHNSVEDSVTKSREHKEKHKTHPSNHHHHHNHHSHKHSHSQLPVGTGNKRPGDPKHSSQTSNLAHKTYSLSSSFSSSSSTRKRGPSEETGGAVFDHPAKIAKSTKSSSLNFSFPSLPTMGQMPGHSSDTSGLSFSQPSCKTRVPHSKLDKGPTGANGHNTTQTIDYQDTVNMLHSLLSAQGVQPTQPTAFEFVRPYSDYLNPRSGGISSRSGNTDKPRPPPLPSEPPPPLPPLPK

Molecules are shown by their SMILES. Bounds are passed on as bounds.

Usually IC50 stands for the concentration at which inhibition is half-maximal. Higher therefore signals a need for much substance. The compound `COCCNc1cccc(-c2cc(NC(=O)[C@@H]3CCCNC3)ncc2Cl)n1` [Example 26, (R)-Piperidine-3-carboxylic acid [5′-chloro-6-(2-methoxy-ethylamino)-[2,4′]bipyridinyl-2′-yl]-amide] registered an IC50 of 32 nM.

On to `O=C(Nc1cc(-c2cccc(NC[C@@H]3CCCO3)n2)c(Cl)cn1)[C@@H]1CCCNC1` [Example 27, (R)-Piperidine-3-carboxylic acid (5′-chloro-6-{[(S)-1-(tetrahydro-furan-2-yl)methyl]-amino}-[2,4′]bipyridinyl-2′-yl)-amide], for which 21 nM corresponded to half-maximal inhibition (IC50). Compared with the last compound, the IC50 is about 1.5-fold lower. With `COCCCNc1cccc(-c2cc(NC(=O)[C@@H]3CCCNC3)ncc2Cl)n1` [Example 28, (R)-Piperidine-3-carboxylic acid [5′-chloro-6-(3-methoxy-propylamino)-[2,4′]bipyridinyl-2′-yl]-amide], the IC50 is 21 nM. That is a double-digit nanomolar value. For the compound `C[C@@H](O)CNc1cccc(-c2cc(NC(=O)[C@@H]3CCCNC3)ncc2Cl)n1` [Example 29, (R)-Piperidine-3-carboxylic acid [5′-chloro-6-((R)-2-hydroxy-propylamino)-[2,4′]bipyridinyl-2′-yl]-amide], the concentration for half-maximal inhibition (IC50) is 26 nM. The value for `CC(=O)N1CCC(CNc2cccc(-c3cc(NC(=O)[C@@H]4CCCNC4)ncc3Cl)n2)CC1` [Example 30, (R)-Piperidine-3-carboxylic acid {6-[(1-acetyl-piperidin-4-ylmethyl)-amino]-5′-chloro-[2,4′]bipyridinyl-2′-yl}-amide] was less than 8 nM; that for `C[C@H](O)CNc1cccc(-c2cc(NC(=O)[C@@H]3CCCNC3)ncc2Cl)n1` [Example 31, (R)-Piperidine-3-carboxylic acid [5′-chloro-6-((S)-2-hydroxy-propylamino)-[2,4′]bipyridinyl-2′-yl]-amide] was 46 nM. The value for `O=C(Nc1cc(-c2cccc(NCCN3CCCC3=O)n2)c(Cl)cn1)[C@@H]1CCCNC1` [Example 32, (R)-Piperidine-3-carboxylic acid {5′-chloro-6-[2-(2-oxo-pyrrolidin-1-yl)-ethylamino]-[2,4′]bipyridinyl-2′-yl}-amide] was 19 nM. The value for `O=C(Nc1cc(-c2cccc(NC3CCOCC3)n2)c(Cl)cn1)[C@@H]1CCCNC1` [Example 33, (R)-Piperidine-3-carboxylic acid [5′-chloro-6-(tetrahydro-pyran-4-ylamino)-[2,4′]bipyridinyl-2′-yl]-amide] was 76 nM. The compound `O=C(Nc1cc(-c2cccc(NCC3CCCCO3)n2)c(Cl)cn1)[C@@H]1CCCNC1` (stereo partly drawn) [Example 34, (R)-Piperidine-3-carboxylic acid {5′-chloro-6-[(tetrahydro-pyran-2-ylmethyl)-amino]-[2,4′]bipyridinyl-2′-yl}-amide] had an IC50 of 10 nM. This IC50 lies about 7.6-fold lower than the previous one. The same measure for `CN(CC1CCOCC1)c1cccc(-c2cc(NC(=O)[C@@H]3CCCNC3)ncc2Cl)n1` [Example 35, (R)-Piperidine-3-carboxylic acid {5′-chloro-6-[methyl-(tetrahydro-pyran-4-ylmethyl)-amino]-[2,4′]bipyridinyl-2′-yl}-amide]: less than 8 nM.

Take `CN(C)c1cccc(-c2cc(NC(=O)[C@@H]3CCCNC3)ncc2Cl)n1` [Example 36, (R)-Piperidine-3-carboxylic acid (5′-chloro-6-dimethylamino-[2,4′]bipyridinyl-2′-yl)-amide]: the 50% inhibitory concentration (IC50) came out at 102 nM. This counts as sub-micromolar. The value for `CC(=O)NCCNc1cccc(-c2cc(NC(=O)[C@@H]3CCCNC3)ncc2Cl)n1` [Example 37, (R)-Piperidine-3-carboxylic acid [6-(2-acetylamino-ethylamino)-5′-chloro-[2,4′]bipyridinyl-2′-yl]-amide] was 50 nM.

`O=C(Nc1cc(-c2cccc(NCC3CCCCC3)n2)c(Cl)cn1)[C@H]1CCCNC1` [Example 38, (S)-Piperidine-3-carboxylic acid [5′-chloro-6-(cyclohexylmethyl-amino)-[2,4′]bipyridinyl-2′-yl]-amide]: inhibition was half-maximal at 23 nM (IC50). The value for `O=C(Nc1cc(-c2cccc(NCc3ccccc3)n2)c(Cl)cn1)[C@@H]1CCCNC1` [Example 39, (R)-Piperidine-3-carboxylic acid (6-benzylamino-5′-chloro-[2,4′]bipyridinyl-2′-yl)-amide] was less than 8 nM. The same measure for `O=C(Nc1cc(-c2cccc(NCc3cccnc3)n2)c(Cl)cn1)[C@@H]1CCCNC1` [Example 40, (R)-Piperidine-3-carboxylic acid {5′-chloro-6-[(pyridin-3-ylmethyl)-amino]-[2,4′]bipyridinyl-2′-yl}-amide]: less than 8 nM; for `O=C(Nc1cc(-c2cccc(NCc3cncc(F)c3)n2)c(Cl)cn1)[C@@H]1CCCNC1` [Example 41, (R)-Piperidine-3-carboxylic acid {5′-chloro-6-[(5-fluoro-pyridin-3-ylmethyl)-amino]-[2,4′]bipyridinyl-2′-yl}-amide]: less than 8 nM; for `O=C(Nc1cc(-c2cccc(N3CCC(c4ccccc4)CC3)n2)c(Cl)cn1)[C@@H]1CCCNC1` [Example 42, (R)-Piperidine-3-carboxylic acid (5″- chloro-4-phenyl-3,4,5,6-tetrahydro-2H-[1,2′;6′,4″]terpyridin-2″- yl)-amide]: 42 nM.

`O=C(Nc1cc(-c2cccc(N3CCC(O)CC3)n2)c(Cl)cn1)[C@@H]1CCCNC1` [Example 43, (R)-Piperidine-3-carboxylic acid (5″- chloro-4-hydroxy-3,4,5,6-tetrahydro-2H-[1,2′;6′,4″]terpyridin-2″- yl)-amide] registered a half-maximal inhibitory concentration (IC50) of 57 nM.

Compound `O=C(Nc1cc(-c2cccc(N3CCCC3)n2)c(Cl)cn1)[C@@H]1CCCNC1` [Example 44, (R)-Piperidine-3-carboxylic acid (5′-chloro-6-pyrrolidin-1-yl-[2,4′]bipyridinyl-2′-yl)-amide] returned an IC50 of 181 nM. This IC50 lies about 3.2-fold higher than the previous one. In the case of `O=C(Nc1cc(-c2cccc(N3CCOCC3)n2)c(Cl)cn1)[C@@H]1CCCNC1` [Example 45, (R)-Piperidine-3-carboxylic acid (5′-chloro-6-morpholin-4-yl-[2,4′]bipyridinyl-2′-yl)-amide], the IC50 amounted to 154 nM. Consider `O=C(Nc1cc(-c2cccc(NCC3CCCOC3)n2)c(Cl)cn1)[C@H]1CCCNC1` (stereo partly drawn) [Example 46, (S)-Piperidine-3-carboxylic acid {5′-chloro-6-[(tetrahydro-pyran-3-ylmethyl)-amino]-[2,4′]bipyridinyl-2′-yl}-amide], for which the IC50 was 56 nM. In turn, `N[C@@H]1CC[C@H](C(=O)Nc2cc(-c3cccc(NCC4CCOCC4)n3)c(Cl)cn2)C1` [Example 47, (1S,3R)-3-Amino-cyclopentanecarboxylic acid {5′-chloro-6-[(tetrahydro-pyran-4-ylmethyl)-amino]-[2,4′]bipyridinyl-2′-yl}-amide] returned an IC50 of less than 8 nM. The same measure for `N[C@H]1CC[C@@H](C(=O)Nc2cc(-c3cccc(NCC4CCOCC4)n3)c(Cl)cn2)C1` [Example 48, (1R,3S)-3-Amino-cyclopentanecarboxylic acid {5′-chloro-6-[(tetrahydro-pyran-4-ylmethyl)-amino]-[2,4′]bipyridinyl-2′-yl}-amide]: less than 8 nM. The value for `N[C@@H]1CC[C@@H](C(=O)Nc2cc(-c3cccc(NCC4CCOCC4)n3)c(Cl)cn2)C1` [Example 49, (1R,3R)-3-Amino-cyclopentanecarboxylic acid {5′-chloro-6-[(tetrahydro-pyran-4-ylmethyl)-amino]-[2,4′]bipyridinyl-2′-yl}-amide] was less than 8 nM.

`O=C(Nc1cc(-c2cccc(NCC3CCOCC3)n2)c(Cl)cn1)[C@@H]1CCNC1` [Example 50, (R)-Pyrrolidine-3-carboxylic acid {5′-chloro-6-[(tetrahydro-pyran-4-ylmethyl)-amino]-[2,4′]bipyridinyl-2′-yl}-amide] registered an IC50 of less than 8 nM. The value for `O=C(Nc1cc(-c2cccc(NCc3ccccc3F)n2)c(Cl)cn1)[C@@H]1CCCNC1` [Example 51, (R)-Piperidine-3-carboxylic acid [5′-chloro-6-(2-fluoro-benzylamino)-[2,4′]bipyridinyl-2′-yl]-amide] was 10 nM; that for `O=C(Nc1cc(-c2cccc(NCc3ccccn3)n2)c(Cl)cn1)[C@@H]1CCCNC1` [Example 52, (R)-Piperidine-3-carboxylic acid {5′-chloro-6-[(pyridin-2-ylmethyl)-amino]-[2,4′]bipyridinyl-2′-yl}-amide] was 38 nM; that for `O=C(Nc1cc(-c2cccc(NCc3ccc(F)cc3)n2)c(Cl)cn1)[C@@H]1CCCNC1` [Example 53, (R)-Piperidine-3-carboxylic acid [5′-chloro-6-(4-fluoro-benzylamino)-[2,4′]bipyridinyl-2′-yl]-amide] was less than 8 nM. The value for `O=C(Nc1cc(-c2cccc(NCc3ccncc3)n2)c(Cl)cn1)[C@@H]1CCCNC1` [Example 54, (R)-Piperidine-3-carboxylic acid {5′-chloro-6-[(pyridin-4-ylmethyl)-amino]-[2,4′]bipyridinyl-2′-yl}-amide] was less than 8 nM. In the case of `O=C(Nc1cc(-c2cccc(NCc3cccc(OC(F)F)c3)n2)c(Cl)cn1)[C@@H]1CCCNC1` [Example 55, (R)-Piperidine-3-carboxylic acid [5′-chloro-6-(3-difluoromethoxy-benzylamino)-[2,4′]bipyridinyl-2′-yl]-amide], the IC50 is less than 8 nM. The same measure for `O=C(Nc1cc(-c2cccc(NCC3CCOCC3)n2)c(Cl)cn1)[C@H]1CCCN1` [Example 57, (R)-Pyrrolidine-2-carboxylic acid {5′-chloro-6-[(tetrahydro-pyran-4-ylmethyl)-amino]-[2,4′]bipyridinyl-2′-yl}-amide]: 81 nM; for `O=C(Nc1cc(-c2cccc(NCC3CCOCC3)n2)c(Cl)cn1)[C@@H]1CCCN1` [Example 58, (S)-Pyrrolidine-2-carboxylic acid {5′-chloro-6-[(tetrahydro-pyran-4-ylmethyl)-amino]-[2,4′]bipyridinyl-2′-yl}-amide]: 116 nM; for `CN1CC(C(=O)Nc2cc(-c3cccc(NCC4CCOCC4)n3)c(Cl)cn2)CC1=O` (stereo not drawn) [Example 60, 1-Methyl-5-oxo-pyrrolidine-3-carboxylic acid {5′-chloro-6-[(tetrahydro-pyran-4-ylmethyl)-amino]-[2,4′]bipyridinyl-2′-yl}-amide]: 9 nM.
